Results taken from the NIST ThermoML archive (doi:10.1016/j.tca.2015.01.022).
± gives the expanded uncertainty stated by the source.

Assay: molar heat capacity at constant pressure
Settings: 101.33 kPa, Glass, Small (less than 1 g) adiabatic calorimetry

## CCCCn1cc[n+](C)c1.F[B-](F)(F)F [1-butyl-3-methylimidazolium tetrafluoroborate]
5 K
  molar heat capacity at constant pressure: 1.47 ± 0.05 J/K/mol
5.16 K
  molar heat capacity at constant pressure: 1.62 ± 0.048 J/K/mol
5.39 K
  molar heat capacity at constant pressure: 1.822 ± 0.052 J/K/mol
5.67 K
  molar heat capacity at constant pressure: 2.094 ± 0.058 J/K/mol
5.96 K
  molar heat capacity at constant pressure: 2.397 ± 0.064 J/K/mol
6.28 K
  molar heat capacity at constant pressure: 2.762 ± 0.071 J/K/mol
6.64 K
  molar heat capacity at constant pressure: 3.192 ± 0.08 J/K/mol
7 K
  molar heat capacity at constant pressure: 3.657 ± 0.089 J/K/mol
7.36 K
  molar heat capacity at constant pressure: 4.172 ± 0.098 J/K/mol
7.73 K
  molar heat capacity at constant pressure: 4.709 ± 0.11 J/K/mol
8.11 K
  molar heat capacity at constant pressure: 5.283 ± 0.12 J/K/mol
8.49 K
  molar heat capacity at constant pressure: 5.896 ± 0.13 J/K/mol
8.87 K
  molar heat capacity at constant pressure: 6.54 ± 0.14 J/K/mol
9.26 K
  molar heat capacity at constant pressure: 7.211 ± 0.15 J/K/mol
9.64 K
  molar heat capacity at constant pressure: 7.915 ± 0.16 J/K/mol
10 K
  molar heat capacity at constant pressure: 8.59 ± 0.18 J/K/mol
10.03 K
  molar heat capacity at constant pressure: 8.641 ± 0.17 J/K/mol
10.52 K
  molar heat capacity at constant pressure: 9.597 ± 0.18 J/K/mol
11.13 K
  molar heat capacity at constant pressure: 10.83 ± 0.2 J/K/mol
11.75 K
  molar heat capacity at constant pressure: 12.13 ± 0.21 J/K/mol
12.36 K
  molar heat capacity at constant pressure: 13.44 ± 0.23 J/K/mol
12.97 K
  molar heat capacity at constant pressure: 14.81 ± 0.24 J/K/mol
13.59 K
  molar heat capacity at constant pressure: 16.22 ± 0.25 J/K/mol
14.22 K
  molar heat capacity at constant pressure: 17.7 ± 0.26 J/K/mol
14.85 K
  molar heat capacity at constant pressure: 19.2 ± 0.28 J/K/mol
15 K
  molar heat capacity at constant pressure: 19.58 ± 0.28 J/K/mol
15.58 K
  molar heat capacity at constant pressure: 20.98 ± 0.29 J/K/mol
16.44 K
  molar heat capacity at constant pressure: 23.16 ± 0.3 J/K/mol
17.29 K
  molar heat capacity at constant pressure: 25.28 ± 0.3 J/K/mol
18.15 K
  molar heat capacity at constant pressure: 27.41 ± 0.31 J/K/mol
19.01 K
  molar heat capacity at constant pressure: 29.55 ± 0.31 J/K/mol
19.88 K
  molar heat capacity at constant pressure: 31.75 ± 0.31 J/K/mol
20 K
  molar heat capacity at constant pressure: 32.08 ± 0.32 J/K/mol
21.08 K
  molar heat capacity at constant pressure: 34.8 ± 0.33 J/K/mol
22.63 K
  molar heat capacity at constant pressure: 38.75 ± 0.35 J/K/mol
24.2 K
  molar heat capacity at constant pressure: 42.72 ± 0.37 J/K/mol
25 K
  molar heat capacity at constant pressure: 44.7 ± 0.38 J/K/mol
25.76 K
  molar heat capacity at constant pressure: 46.64 ± 0.38 J/K/mol
27.21 K
  molar heat capacity at constant pressure: 50.17 ± 0.39 J/K/mol
28.7 K
  molar heat capacity at constant pressure: 53.74 ± 0.4 J/K/mol
30 K
  molar heat capacity at constant pressure: 56.8 ± 0.36 J/K/mol
30.28 K
  molar heat capacity at constant pressure: 57.41 ± 0.36 J/K/mol
32.02 K
  molar heat capacity at constant pressure: 61.38 ± 0.38 J/K/mol
33.93 K
  molar heat capacity at constant pressure: 65.51 ± 0.4 J/K/mol
35 K
  molar heat capacity at constant pressure: 67.76 ± 0.41 J/K/mol
35.84 K
  molar heat capacity at constant pressure: 69.47 ± 0.42 J/K/mol
37.75 K
  molar heat capacity at constant pressure: 73.26 ± 0.44 J/K/mol
39.66 K
  molar heat capacity at constant pressure: 76.94 ± 0.46 J/K/mol
40 K
  molar heat capacity at constant pressure: 77.68 ± 0.47 J/K/mol
41.67 K
  molar heat capacity at constant pressure: 80.75 ± 0.48 J/K/mol
43.78 K
  molar heat capacity at constant pressure: 84.66 ± 0.5 J/K/mol
45 K
  molar heat capacity at constant pressure: 86.86 ± 0.52 J/K/mol
45.89 K
  molar heat capacity at constant pressure: 88.43 ± 0.52 J/K/mol
48 K
  molar heat capacity at constant pressure: 92.13 ± 0.54 J/K/mol
50 K
  molar heat capacity at constant pressure: 95.33 ± 0.56 J/K/mol
50.12 K
  molar heat capacity at constant pressure: 95.61 ± 0.56 J/K/mol
52.24 K
  molar heat capacity at constant pressure: 99 ± 0.58 J/K/mol
54.36 K
  molar heat capacity at constant pressure: 102.2 ± 0.6 J/K/mol
56.48 K
  molar heat capacity at constant pressure: 105.3 ± 0.6 J/K/mol
58.61 K
  molar heat capacity at constant pressure: 108.4 ± 0.6 J/K/mol
60 K
  molar heat capacity at constant pressure: 110.5 ± 0.6 J/K/mol
60.75 K
  molar heat capacity at constant pressure: 111.5 ± 0.6 J/K/mol
62.88 K
  molar heat capacity at constant pressure: 114.5 ± 0.7 J/K/mol
65.01 K
  molar heat capacity at constant pressure: 117.4 ± 0.7 J/K/mol
67.14 K
  molar heat capacity at constant pressure: 120.3 ± 0.7 J/K/mol
69.28 K
  molar heat capacity at constant pressure: 123.1 ± 0.7 J/K/mol
70 K
  molar heat capacity at constant pressure: 124.2 ± 0.7 J/K/mol
71.52 K
  molar heat capacity at constant pressure: 126 ± 0.7 J/K/mol
73.86 K
  molar heat capacity at constant pressure: 129.1 ± 0.7 J/K/mol
76.21 K
  molar heat capacity at constant pressure: 132.1 ± 0.8 J/K/mol
78.57 K
  molar heat capacity at constant pressure: 135.1 ± 0.8 J/K/mol
78.59 K
  molar heat capacity at constant pressure: 135 ± 0.8 J/K/mol
80 K
  molar heat capacity at constant pressure: 136.7 ± 0.7 J/K/mol
80.92 K
  molar heat capacity at constant pressure: 137.8 ± 0.8 J/K/mol
81.08 K
  molar heat capacity at constant pressure: 138.2 ± 0.8 J/K/mol
83.28 K
  molar heat capacity at constant pressure: 140.7 ± 0.8 J/K/mol
83.48 K
  molar heat capacity at constant pressure: 140.7 ± 0.8 J/K/mol
85.56 K
  molar heat capacity at constant pressure: 143.1 ± 0.8 J/K/mol
85.91 K
  molar heat capacity at constant pressure: 143.3 ± 0.8 J/K/mol
88.1 K
  molar heat capacity at constant pressure: 145.9 ± 0.8 J/K/mol
88.36 K
  molar heat capacity at constant pressure: 146.1 ± 0.8 J/K/mol
90 K
  molar heat capacity at constant pressure: 148.1 ± 0.8 J/K/mol
90.56 K
  molar heat capacity at constant pressure: 148.7 ± 0.8 J/K/mol
90.83 K
  molar heat capacity at constant pressure: 148.8 ± 0.8 J/K/mol
93.04 K
  molar heat capacity at constant pressure: 151.5 ± 0.8 J/K/mol
93.31 K
  molar heat capacity at constant pressure: 151.6 ± 0.8 J/K/mol
95.54 K
  molar heat capacity at constant pressure: 154.3 ± 0.8 J/K/mol
95.81 K
  molar heat capacity at constant pressure: 154.3 ± 0.8 J/K/mol
98.06 K
  molar heat capacity at constant pressure: 156.9 ± 0.9 J/K/mol
98.33 K
  molar heat capacity at constant pressure: 156.9 ± 0.9 J/K/mol
100 K
  molar heat capacity at constant pressure: 158.7 ± 0.8 J/K/mol
100.58 K
  molar heat capacity at constant pressure: 159.4 ± 0.9 J/K/mol
100.87 K
  molar heat capacity at constant pressure: 159.6 ± 0.9 J/K/mol
103.12 K
  molar heat capacity at constant pressure: 162 ± 0.9 J/K/mol
103.41 K
  molar heat capacity at constant pressure: 162.3 ± 0.9 J/K/mol
105.68 K
  molar heat capacity at constant pressure: 164.7 ± 0.9 J/K/mol
105.97 K
  molar heat capacity at constant pressure: 164.9 ± 0.9 J/K/mol
108.24 K
  molar heat capacity at constant pressure: 167.2 ± 0.9 J/K/mol
108.53 K
  molar heat capacity at constant pressure: 167.4 ± 0.9 J/K/mol
110 K
  molar heat capacity at constant pressure: 169 ± 0.9 J/K/mol
110.81 K
  molar heat capacity at constant pressure: 169.8 ± 0.9 J/K/mol
111.11 K
  molar heat capacity at constant pressure: 170.1 ± 0.9 J/K/mol
113.39 K
  molar heat capacity at constant pressure: 172.7 ± 0.9 J/K/mol
113.69 K
  molar heat capacity at constant pressure: 172.7 ± 0.9 J/K/mol
115.97 K
  molar heat capacity at constant pressure: 175.1 ± 0.9 J/K/mol
116.27 K
  molar heat capacity at constant pressure: 175.4 ± 0.9 J/K/mol
118.56 K
  molar heat capacity at constant pressure: 177.8 ± 1 J/K/mol
118.87 K
  molar heat capacity at constant pressure: 178 ± 1 J/K/mol
120 K
  molar heat capacity at constant pressure: 179.2 ± 1 J/K/mol
121.16 K
  molar heat capacity at constant pressure: 180.5 ± 1 J/K/mol
121.47 K
  molar heat capacity at constant pressure: 180.7 ± 1 J/K/mol
123.76 K
  molar heat capacity at constant pressure: 183.1 ± 1 J/K/mol
124.08 K
  molar heat capacity at constant pressure: 183.2 ± 1 J/K/mol
126.37 K
  molar heat capacity at constant pressure: 185.5 ± 1 J/K/mol
126.68 K
  molar heat capacity at constant pressure: 185.8 ± 1 J/K/mol
128.98 K
  molar heat capacity at constant pressure: 188.1 ± 1 J/K/mol
129.3 K
  molar heat capacity at constant pressure: 188.4 ± 1 J/K/mol
130 K
  molar heat capacity at constant pressure: 189.1 ± 1 J/K/mol
131.59 K
  molar heat capacity at constant pressure: 190.7 ± 1 J/K/mol
131.91 K
  molar heat capacity at constant pressure: 191 ± 1 J/K/mol
133.42 K
  molar heat capacity at constant pressure: 192.4 ± 1 J/K/mol
134.2 K
  molar heat capacity at constant pressure: 193.3 ± 1 J/K/mol
134.53 K
  molar heat capacity at constant pressure: 193.6 ± 1 J/K/mol
136.1 K
  molar heat capacity at constant pressure: 195 ± 1 J/K/mol
136.82 K
  molar heat capacity at constant pressure: 195.9 ± 1 J/K/mol
137.15 K
  molar heat capacity at constant pressure: 196.2 ± 1.1 J/K/mol
138.71 K
  molar heat capacity at constant pressure: 197.7 ± 1.1 J/K/mol
139.43 K
  molar heat capacity at constant pressure: 198.3 ± 1.1 J/K/mol
139.77 K
  molar heat capacity at constant pressure: 198.7 ± 1.1 J/K/mol
140 K
  molar heat capacity at constant pressure: 198.9 ± 1.1 J/K/mol
141.33 K
  molar heat capacity at constant pressure: 200.2 ± 1.1 J/K/mol
142.05 K
  molar heat capacity at constant pressure: 201.1 ± 1.1 J/K/mol
142.38 K
  molar heat capacity at constant pressure: 201.3 ± 1.1 J/K/mol
143.94 K
  molar heat capacity at constant pressure: 202.8 ± 1.1 J/K/mol
144.67 K
  molar heat capacity at constant pressure: 203.6 ± 1.1 J/K/mol
145 K
  molar heat capacity at constant pressure: 203.9 ± 1.1 J/K/mol
146.55 K
  molar heat capacity at constant pressure: 205.4 ± 1.1 J/K/mol
147.29 K
  molar heat capacity at constant pressure: 206.3 ± 1.1 J/K/mol
